The source of these data is ChEMBL document CHEMBL5550218, “Structural Insights into Protein-Inhibitor Interactions in Human Tryptophan Dioxygenase” (J Med Chem, 2024).

For this test, the target named is Tryptophan 2,3-dioxygenase (Homo sapiens, UniProt P48775).
Chain of Tryptophan 2,3-dioxygenase (P48775 whole entry): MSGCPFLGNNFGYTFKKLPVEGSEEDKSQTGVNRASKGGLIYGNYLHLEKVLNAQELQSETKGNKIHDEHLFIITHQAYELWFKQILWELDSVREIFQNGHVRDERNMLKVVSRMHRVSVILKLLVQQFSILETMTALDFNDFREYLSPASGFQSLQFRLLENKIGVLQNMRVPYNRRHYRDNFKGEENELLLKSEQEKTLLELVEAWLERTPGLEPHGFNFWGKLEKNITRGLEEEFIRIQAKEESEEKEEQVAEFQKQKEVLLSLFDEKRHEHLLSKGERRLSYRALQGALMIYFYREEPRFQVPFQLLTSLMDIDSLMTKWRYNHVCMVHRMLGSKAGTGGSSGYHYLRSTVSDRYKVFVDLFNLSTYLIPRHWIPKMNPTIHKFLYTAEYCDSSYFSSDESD

`O=C1CC(c2c[nH]c3ccc(F)cc23)C(=O)N1` (stereo unspecified) [PF-06840003] came in with an IC50 of 424 µM.

In general, IC50 refers to the concentration that inhibits the measured activity by half.
